Values after ≈ are worked out from the molar mass of the structure shown. Like-named read-outs stand apart in the source and are kept apart here. Starred links: 1 amine or outer side, 2 acyl side, 3 side chain; linkers in the order of their positions; H or OH if unused. Positions of bridges follow the written chain, without caps; N, C: chain ends. Residues, ends and D or L forms follow the SMILES beside them. *: point of attachment. C18 diacid = O=C(O)CCCCCCCCCCCCCCCCC(=O)*; γGlu = O=C(O)[C@H](CCC(=O)[*:2])N[*:1]; AEEA = NCCOCCOCC(=O)O
Columns and labels:
[1] = target: T1, human natriuretic peptide receptor 2 (hNPR2) (Homo sapiens, UniProt P20594); assay: In vitro hNPR2 activity assay (cGMP GloSensor reporter, HEK293); assay type: cell-based; settings: for hNPR2 0% HSA. [EC50% rel CNP]: potency relative to CNP22 (0065)
T1 construct: expressed in transfected cells; host or cells: HEK293 (ATCC CRL-1573), clone 35, co-transfected with pGloSensor-42F
T1 sequence (P20594 23-1047): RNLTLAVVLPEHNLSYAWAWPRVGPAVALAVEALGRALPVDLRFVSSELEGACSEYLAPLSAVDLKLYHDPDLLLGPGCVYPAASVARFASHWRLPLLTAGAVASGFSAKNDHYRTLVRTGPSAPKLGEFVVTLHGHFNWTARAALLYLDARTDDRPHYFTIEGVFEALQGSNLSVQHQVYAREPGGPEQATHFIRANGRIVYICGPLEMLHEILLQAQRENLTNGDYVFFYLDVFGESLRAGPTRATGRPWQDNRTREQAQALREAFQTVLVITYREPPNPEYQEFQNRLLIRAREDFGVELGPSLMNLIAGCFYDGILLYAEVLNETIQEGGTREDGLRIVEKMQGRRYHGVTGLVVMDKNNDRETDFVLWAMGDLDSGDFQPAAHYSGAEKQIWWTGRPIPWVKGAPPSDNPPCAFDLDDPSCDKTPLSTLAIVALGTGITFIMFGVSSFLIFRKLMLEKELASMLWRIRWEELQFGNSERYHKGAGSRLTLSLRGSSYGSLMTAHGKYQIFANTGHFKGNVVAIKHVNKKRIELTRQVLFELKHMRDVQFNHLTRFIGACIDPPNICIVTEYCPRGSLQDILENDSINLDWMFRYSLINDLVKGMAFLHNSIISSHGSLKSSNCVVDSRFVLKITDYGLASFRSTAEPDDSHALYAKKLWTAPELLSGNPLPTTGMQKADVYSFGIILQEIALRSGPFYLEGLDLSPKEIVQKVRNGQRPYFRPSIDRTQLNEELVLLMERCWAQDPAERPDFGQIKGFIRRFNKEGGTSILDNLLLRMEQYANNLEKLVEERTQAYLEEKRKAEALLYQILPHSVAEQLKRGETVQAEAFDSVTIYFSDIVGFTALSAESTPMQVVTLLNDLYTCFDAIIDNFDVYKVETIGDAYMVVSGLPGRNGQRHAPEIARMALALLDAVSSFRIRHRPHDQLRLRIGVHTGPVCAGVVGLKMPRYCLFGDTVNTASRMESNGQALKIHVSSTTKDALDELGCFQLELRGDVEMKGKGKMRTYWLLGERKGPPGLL
Outline: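 Potency is the EC50 from a four-parameter logistic fit, also expressed relative to the in-plate CNP22 control (×100), with at least two replicates. Compounds (ten concentrations, […], HSA-free diluent with 1% OVA, 0.01% Tween20) were incubated 30 min at 37 °C on HEK293 cells co-expressing hNPR2 and a GloSensor cGMP luciferase. Luminescence detected with Bright-Glo.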

[2] = Solubility of CNP compounds at pH 4.0 and pH 6.5; assay type: physicochemical
Outline: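 Freeze-dried peptide was brought to a nominal ≥4000-5000 nmol/mL in 5 mM sodium acetate, 250 mM glycerol (pH 4.0) or in 8 mM sodium phosphate, 23 mg/mL glycerol (pH 6.5 via NaOH titration). Samples were equilibrated at room temperature overnight if undissolved, and supernatant concentration was measured by CAD.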

[3] = 5 mM sodium acetate, 250 mM glycerol, pH 4.0, room temperature, read-out: Solubility at pH 4.0
[4] = 8 mM sodium phosphate, 23 mg/mL glycerol, pH 6.5, room temperature, read-out: Solubility at pH 6.5

SMILES	hNPR2 0% HSA. [EC50% rel CNP] [1] [%]	solubility [2, 3] [mM]	solubility [2, 4] [mM]	EC50 ([1]; 0% HSA, HEK293-hNPR2/GloSensor cells) [nM]	solubility ([2]; pH 6.5) [mM]
CC[C@H](C)[C@@H]1NC(=O)[C@H](CCCNC(=N)N)NC(=O)[C@H](CC(=O)O)NC(=O)[C@H](CC(C)C)NC(=O)[C@@H]2CCCN2C(=O)[C@H](CC(C)C)NC(=O)CNC(=O)[C@H](Cc2ccccc2)NC(=O)[C@@H](NC(=O)CNC(=O)[C@H](CO)NC(=O)[C@H](CO)NC(=O)[C@H](CC(C)C)NC(=O)CNC(=O)[C@H](CCCCN)NC(=O)[C@H](CCCCN)NC(=O)[C@H](CCC(N)=O)NC(=O)[C@H](C)NC(=O)CNC(=O)[C@H](CCCCN)NC(=O)[C@H](Cc2ccc(O)cc2)NC(=O)[C@H](CCCCN)NC(=O)[C@H](CCCNC(=N)N)NC(=O)[C@H](C)NC(=O)[C@H](CCC(N)=O)NC(=O)[C@@H]2CCCN2C(=O)[C@H](Cc2c[nH]cn2)NC(=O)[C@H](CCC(=O)O)NC(=O)[C@H](CCC(N)=O)NC(=O)COCCOCCNC(=O)COCCOCCNC(=O)CC[C@H](NC(=O)CC[C@H](NC(=O)CC[C@H](NC(=O)CC[C@H](NC(=O)CCCCCCCCCCCCCCCCC(=O)O)C(=O)O)C(=O)O)C(=O)O)C(=O)O)CSSC[C@@H](C(=O)O)NC(=O)CNC(=O)[C@H](CC(C)C)NC(=O)CNC(=O)[C@H](CO)NC(=O)[C@H](CC(C)C)NC(=O)[C@H](CO)NC(=O)CNC1=O [compound 1473] ({C18 diacid-γGlu-γGlu-γGlu-γGlu-AEEA-AEEA}-QEHPQARKYKGAQKKGLSSGCFGLPLDRIGSLSGLGC-OH; disulfide 21-37; C-terminus assumed)	107.7	5.83 (≈ 29.1 mg/mL)	1.76 (≈ 8.8 mg/mL)		
CC[C@H](C)[C@@H]1NC(=O)[C@H](CCCNC(=N)N)NC(=O)[C@H](CC(=O)O)NC(=O)[C@H](CC(C)C)NC(=O)[C@@H]2CCCN2C(=O)[C@H](CC(C)C)NC(=O)CNC(=O)[C@H](Cc2ccccc2)NC(=O)[C@@H](NC(=O)CNC(=O)[C@H](CCCCN)NC(=O)[C@H](CO)NC(=O)[C@H](CC(C)C)NC(=O)CNC(=O)[C@H](CCCCN)NC(=O)[C@H](CCCCN)NC(=O)[C@H](CCC(N)=O)NC(=O)[C@H](C)NC(=O)CNC(=O)[C@H](CCCCN)NC(=O)[C@H](Cc2ccc(O)cc2)NC(=O)[C@H](CCCCN)NC(=O)[C@H](CCCNC(=N)N)NC(=O)[C@H](C)NC(=O)[C@H](CCC(N)=O)NC(=O)[C@@H]2CCCN2C(=O)[C@H](Cc2c[nH]cn2)NC(=O)[C@H](CCC(=O)O)NC(=O)[C@H](CCC(N)=O)NC(=O)COCCOCCNC(=O)COCCOCCNC(=O)CC[C@H](NC(=O)CC[C@H](NC(=O)CC[C@H](NC(=O)CC[C@H](NC(=O)CC[C@H](NC(=O)CCCCCCCCCCCCCCCCC(=O)O)C(=O)O)C(=O)O)C(=O)O)C(=O)O)C(=O)O)CSSC[C@@H](C(=O)O)NC(=O)CNC(=O)[C@H](CC(C)C)NC(=O)CNC(=O)[C@H](CO)NC(=O)[C@H](CC(C)C)NC(=O)[C@H](CO)NC(=O)CNC1=O [compound 1474] ({C18 diacid-γGlu-γGlu-γGlu-γGlu-γGlu-AEEA-AEEA}-QEHPQARKYKGAQKKGLSKGCFGLPLDRIGSLSGLGC-OH; disulfide 21-37; C-terminus assumed)	62.5	6.38 (≈ 32.9 mg/mL)	0.969 (≈ 5 mg/mL)		
CC[C@H](C)[C@@H]1NC(=O)[C@H](CCCNC(=N)N)NC(=O)[C@H](CCC(=O)O)NC(=O)[C@H](CC(C)C)NC(=O)[C@@H]2CCCN2C(=O)[C@H](CC(C)C)NC(=O)CNC(=O)[C@H](Cc2ccccc2)NC(=O)[C@@H](NC(=O)CNC(=O)[C@H](CCC(N)=O)NC(=O)[C@H](CO)NC(=O)[C@H](CC(C)C)NC(=O)CNC(=O)[C@H](CCCCN)NC(=O)[C@H](CCCCN)NC(=O)[C@H](CCC(N)=O)NC(=O)[C@H](C)NC(=O)CNC(=O)[C@H](CCCCN)NC(=O)[C@H](Cc2ccc(O)cc2)NC(=O)[C@H](CCCCN)NC(=O)[C@H](CCCNC(=N)N)NC(=O)[C@H](C)NC(=O)COCCOCCNC(=O)COCCOCCNC(=O)COCCOCCNC(=O)COCCOCCNC(=O)CC[C@H](NC(=O)CC[C@H](NC(=O)CC[C@H](NC(=O)CC[C@H](NC(=O)CC[C@H](NC(=O)CCCCCCCCCCCCCCCCC(=O)O)C(=O)O)C(=O)O)C(=O)O)C(=O)O)C(=O)O)CSSC[C@@H](C(=O)O)NC(=O)CNC(=O)[C@H](CC(C)C)NC(=O)CNC(=O)[C@H](CO)NC(=O)[C@H](CC(C)C)NC(=O)[C@H](CO)NC(=O)CNC1=O [compound 1477] ({C18 diacid-γGlu-γGlu-γGlu-γGlu-γGlu-AEEA-AEEA-AEEA-AEEA}-ARKYKGAQKKGLSQGCFGLPLERIGSLSGLGC-OH; disulfide 16-32)	10.3			0.13	5.35 (≈ 25.9 mg/mL)
CC[C@H](C)[C@@H]1NC(=O)[C@H](CCCNC(=N)N)NC(=O)[C@H](CC(=O)O)NC(=O)[C@H](CC(C)C)NC(=O)[C@@H]2CCCN2C(=O)[C@H](CC(C)C)NC(=O)CNC(=O)[C@H](Cc2ccccc2)NC(=O)[C@@H](NC(=O)CNC(=O)[C@H](CCC(N)=O)NC(=O)[C@H](CO)NC(=O)[C@H](CC(C)C)NC(=O)CNC(=O)[C@H](CCCCN)NC(=O)[C@H](CCCCN)NC(=O)[C@H](CCC(N)=O)NC(=O)[C@H](C)NC(=O)CNC(=O)[C@H](CCCCN)NC(=O)[C@H](Cc2ccc(O)cc2)NC(=O)COCCOCCNC(=O)COCCOCCNC(=O)COCCOCCNC(=O)COCCOCCNC(=O)CC[C@H](NC(=O)CC[C@H](NC(=O)CCCCCCCCCCCCCCCCC(=O)O)C(=O)O)C(=O)O)CSSC[C@@H](C(=O)O)NC(=O)CNC(=O)[C@H](CC(C)C)NC(=O)CNC(=O)[C@H](CO)NC(=O)[C@H](CC(C)C)NC(=O)[C@H](CO)NC(=O)CNC1=O [compound 1478] ({C18 diacid-γGlu-γGlu-AEEA-AEEA-AEEA-AEEA}-YKGAQKKGLSQGCFGLPLDRIGSLSGLGC-OH; disulfide 13-29; C-terminus assumed)	26.6	6.51 (≈ 26.6 mg/mL)	2.18 (≈ 8.9 mg/mL)		
CC[C@H](C)[C@@H]1NC(=O)[C@H](CCCNC(=N)N)NC(=O)[C@H](CC(=O)O)NC(=O)[C@H](CC(C)C)NC(=O)[C@@H]2CCCN2C(=O)[C@H](CC(C)C)NC(=O)CNC(=O)[C@H](Cc2ccccc2)NC(=O)[C@@H](NC(=O)CNC(=O)[C@H](CCC(N)=O)NC(=O)[C@H](CO)NC(=O)[C@H](CC(C)C)NC(=O)CNC(=O)[C@H](CCCCN)NC(=O)[C@H](CCCCN)NC(=O)[C@H](CCC(N)=O)NC(=O)[C@H](C)NC(=O)CNC(=O)[C@@H]2CCCN2C(=O)[C@H](C)NC(=O)[C@H](CCC(N)=O)NC(=O)CNC(=O)COCCOCCNC(=O)COCCOCCNC(=O)CC[C@H](NC(=O)CCCCCCCCCCCCCCCCC(=O)O)C(=O)O)CSSC[C@@H](C(=O)O)NC(=O)CNC(=O)[C@H](CC(C)C)NC(=O)CNC(=O)[C@H](CO)NC(=O)[C@H](CC(C)C)NC(=O)[C@H](CO)NC(=O)CNC1=O [compound 1484] ({C18 diacid-γGlu-AEEA-AEEA}-GQAPGAQKKGLSQGCFGLPLDRIGSLSGLGC-OH; disulfide 15-31; C-terminus assumed)	27.9		2.33 (≈ 8.7 mg/mL)		
